Laboratory results reported in patent EP1161410B1, “RETINOID ANTAGONISTS AND USE THEREOF” (Basilea Pharmaceutica AG, priority 1999, dated 2000).

Columns and labels:
human naive T cells = experiment: Inhibition of differentiation of human naive T cells into T helper 2 (Th2) cells; type: cell-based; design: dose or concentration left out as unconfirmed; details: for IL-4 expressing cells, % gated cells: Th2 control 26.32; for IL-4 expressing cells, % Th2 cells: Th2 control = 100
Description: In vitro assay for inhibition of differentiation of human naive T cells into T helper 2 (Th2) cells by retinoid antagonists.
Naive T cells from cord blood were isolated and treated as described [Panina-Bordignon et al. J. Clin. Invest. 100. 1513-1519 (1997)]. Briefly, cord blood derived mononuclear cells were incubated with anti-CD45RA and anti-CD4 monoclonal antibodies. After a 20 minute incubation, cells were washed and incubated with goat antimouse Ig-coated magnetic beads. Positive cells were separated and seeded at 1 x 10^6 cells/ml in a 24 well plate, together with autologous adherent cells, PHA, and IL-4 in the presence or absence of Compound H or Compound B […] for 5 days. Cells were then washed and put back in culture in the presence of IL-2 (100 U/ml). After 10 days, the cells were collected and restimulated with PMA (50 ng/ml) and ionomycin (1 µg/ml) for 4 hours. Brefeldin A (10 µg/ml) was added for the last 2 hours. Then the cells were fixed with 4% paraformaldehyde and permeabilized with saponin. Fixed cells were stained with FITC-anti IFNγ and PE-anti-IL-4mAbs and subjected to cytofluorimetric analysis.

[1] = tested on: airway inflammatory cell accumulation; experiment: Murine model of allergen-induced airway inflammation: airway inflammatory cell accumulation; type: in vivo, C57BL/6 mice; details: for Cell Influx, Total leukocytes: vehicle 795000; for Cell Influx, Eosinophils: vehicle 335000; for Cell Influx, Macrophages: vehicle 443000
Description: Murine model of allergen-induced airway inflammation and hyperresponsiveness.
C57BL/6 mice (8-9 weeks old) are actively sensitized to ovalbumin (OA) on day 0 and on day 14 by a intraperitoneal injection of 10 µg OA + 1 mg Al(OH)3 (gel suspension) in 0.2 ml sterile saline. On day 21, the mice were challenged with 5.0 % OA aerosol for 18 minutes. The aerosol is generated by a De Vilbiss Ultra-Neb 90 ultrasonic nebulizer, the outlet of which is connected to a small plexiglass chamber containing the animals. The mice are dosed with the RXR antagonist Compound B (10 and 30 mg/kg intraperitoneally) daily for three days, 48 hours, 24 hours, and immediately prior to OA challenge. Animals are used on […].
Airway Inflammatory Cell Accumulation: On day 24, three days after the challenge with OA aerosol, animals are anesthetized with urethane (2.4 g/kg) and tracheotomized with a 23 gauge catheter. Lungs are lavaged with aliquots (2 x 1 ml) of sterile Hank's balanced salt solution without Ca^++ and Mg^++. Lavage fluid is recovered after 30 sec by gentle aspiration and pooled for each animal. Samples then are centrifuged at 2000 rpm for 15 minutes at 5 °C. Red blood cells are lysed from the resulting pellet with 0.5 ml distilled water and the cells remaining in the pellet are reconstituted with 5 ml HBSS. Samples are centrifuged a second time at 2000 rpm for 15 minutes at 5 °C. The resulting pellet is suspended in 1 ml of HBSS. Total cell number is determined from an aliquot of the cell suspension using a hemocytometer. For cytological preparations, the cells are fixed on cytocentrifuged slides stained with a modified Wright's stain. Differential counts on at least 300 cells are made using standard morphological criteria to classify cells.

IL-12 = IL-12 production by THP-1 cells stimulated with IFNγ and SAC; type: cell-based, human; details: retinoid antagonist (1 µg) added at time 0 together with IFNγ, IFNγ+SAC alone 275
Description: THP-1 cells were obtained from American Tissue Culture Collection and cultured in complete medium. To assay for IL-12 production, THP-1 cells, 1.25 x 10^6 cells/ml, were stimulated with S. aureus Cowan strain (SAC) (1/1000) and human recombinant interferon-γ (huIFN-γ (1000 U/ml) [Ma et al., J. Exp. Med. 183, 147-157 (1996)]. Alternatively, 0.5 x 10^6 human peripheral blood mononuclear cells (PBMC) (1 ml culture in 48 well plates) were primed with huIFN-γ (1000 U/ml) for 16 hours at 37°C, and then stimulated with SAC (1/1000). Supernatants were collected after 48 hours and freezed at -20 °C until assayed [Panina-Bordignon et al., J. Clin. Invest. 100, 1513-1519 (1997)].
IL-12 production was measured by specific enzyme linked immuno sorbant assay (ELISA), using 20C2 antibody (rat anti human IL-12 heterodimer p40-p35), at 2.5 µg/ml in coating buffer, and peroxidase-conjugated 4D6 antibody (rat anti human IL-12) at 250 ng/ml in assay buffer as described [Zhang et al., J. Clin. Invest. 93, 1733-1739 (1994)]. Standard (recombinant human IL-12, 800 pg/ml to 6 pg/ml) and samples (100 µl) diluted in assay buffer were added to duplicate wells. Absorbance was read at 450-650 nm. The unknown IL-12 concentrations of the samples were read from the corresponding standard curve and multiplied by the corresponding dilution factor. Maximal IL-12 production varied between 200 and 400 pg/ml.
Lyophilized retinoid antagonists were diluted in DMSO under yellow light, on ice at a concentration of 2 mM. Serial dilutions (1 µM-1 pM) were prepared in complete RPMI medium. 10 µl of each dilution was added to 1 ml culture.

[2] = Clinical trial, topical treatment of precancerous lesions of the skin (multiple actinic keratoses); type: in vivo, human; details: cream 1 % twice daily
Source text: Efficacy of topical application of Compound B in the treatment of precancerous lesions of the skin (multiple actinic keratoses)
In a clinical trial, a cream containing 1 % of Compound B was applied on the lesions twice daily without occlusive dressing. […]

[3] = Patient I, both forearms, 4 months
[4] = Patient IV, face and back of both hands, 3 months

CCCCOc1c(\C(C)=C/C=C/C(C)=C/C(=O)O)cc(C(C)(C)C)cc1C(C)(C)C [Compound B, (2E,4E,6Z)-7-(3,5-di-tert.butyl-2-butyloxyphenyl]-3-methyl-2,4,6-octatrienoic acid]
IL-4 expressing cells, % gated cells (human naive T cells): 8.5% | IL-4 expressing cells, % Th2 cells (human naive T cells): 32% | Percent of reduction, Eosinophils ([1]; 10 mg/kg intraperitoneally): 48% | Percent of reduction, Macrophages ([1]; 10 mg/kg intraperitoneally): 35% | Percent of reduction, Total leukocytes ([1]; 10 mg/kg intraperitoneally): 39% | Cell Influx, Total leukocytes ([1]; 10 mg/kg intraperitoneally daily for three days): 488000 cells/ml | Cell Influx, Eosinophils ([1]; 10 mg/kg intraperitoneally): 176000 cells/ml | Cell Influx, Macrophages ([1]; 10 mg/kg intraperitoneally): 289000 cells/ml | Percent of reduction, Eosinophils ([1]; 30 mg/kg intraperitoneally): 73% | Percent of reduction, Macrophages ([1]; 30 mg/kg intraperitoneally): 62% | Percent of reduction, Total leukocytes ([1]; 30 mg/kg intraperitoneally): 66% | Cell Influx, Total leukocytes ([1]; 30 mg/kg intraperitoneally daily for three days): 271000 cells/ml | Cell Influx, Eosinophils ([1]; 30 mg/kg intraperitoneally): 91000 cells/ml | Cell Influx, Macrophages ([1]; 30 mg/kg intraperitoneally): 172000 cells/ml | THP-1 IL-12 (IL-12): 577 pg/mL | Adverse Events (particularly irritation of lesions and surrounding skin) [2, 3]: none | Improvement [2, 3]: marked | Reduction in Size of Lesions ([2]; Patient I, m, 53 years, both forearms, 4 months): 50% | Adverse Events (particularly irritation of lesions and surrounding skin) ([2]; Patient II, face, 6 weeks): none | Improvement ([2]; Patient II, face, 6 weeks): slight | Reduction in Size of Lesions ([2]; Patient III (person two), face, 4 months): 30% | Adverse Events (particularly irritation of lesions and surrounding skin) ([2]; Patient III, face, 4 months): none | Improvement ([2]; Patient III, face, 4 months): moderate | Adverse Events (particularly irritation of lesions and surrounding skin) [2, 4]: none | Improvement [2, 4]: moderate | Adverse Events (particularly irritation of lesions and surrounding skin) ([2]; Patient V, face, 2 months): none | Improvement ([2]; Patient V, face, 2 months): no | Reduction in Size of Lesions ([2]; Patient V, m, 74 years, face, 2 months): 0%

CCCCCCCOc1cc2c(cc1/C(C)=C/c1ccc(C(=O)O)cc1)C(C)(C)CCS2(=O)=O [Compound H, p-[(E)-2-[3',4'-Dihydro-4',4'-dimethyl-7'-(beptyloxy)-2'H-1-benzothiopyran-6'-yl]propenyl]benzoic acid 1',1'-dioxide]
IL-4 expressing cells, % gated cells (human naive T cells): 10.8% | IL-4 expressing cells, % Th2 cells (human naive T cells): 41% | THP-1 IL-12 (IL-12): 306 pg/mL
